Here are results for 27 molecules from patent US9328099B2, “Cyanomethylpyrazole carboxamides as janus kinase inhibitors” (Merck Sharp & Dohme Corp., priority 2011, dated 2016).

One assay addresses JAK2 (Homo sapiens (Human), UniProt O60674). Description: Jak Biochemical HTRF Assay, JAK2. Conditions: HTRF biochemical assay, GST-tagged catalytic domain; top concentration tested […]. The text has this: (§1) Jak Biochemical HTRF Assay Protocol
(§2) Subsequent reagent additions employed an Agilent Bravo.

The next assay deals with JAK1 (Homo sapiens (Human), UniProt P23458). Description: Jak Biochemical HTRF Assay, JAK1. Conditions: HTRF biochemical assay, GST-tagged catalytic domain; top concentration tested […]; read-out: JAK1 IC50.
Excerpt: as §1, §2
In general terms: In TR-FRET formats the signal depends on donor and acceptor labels being close together.

JAK2, sequence (O60674 849-1124): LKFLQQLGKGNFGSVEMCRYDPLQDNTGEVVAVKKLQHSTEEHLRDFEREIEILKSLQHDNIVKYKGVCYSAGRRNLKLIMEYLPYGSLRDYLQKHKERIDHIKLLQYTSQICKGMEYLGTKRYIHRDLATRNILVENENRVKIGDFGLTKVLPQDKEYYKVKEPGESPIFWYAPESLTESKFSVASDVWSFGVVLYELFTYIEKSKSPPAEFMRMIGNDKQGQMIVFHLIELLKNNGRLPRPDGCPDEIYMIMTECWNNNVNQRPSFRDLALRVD
JAK1, sequence (P23458 875-1153): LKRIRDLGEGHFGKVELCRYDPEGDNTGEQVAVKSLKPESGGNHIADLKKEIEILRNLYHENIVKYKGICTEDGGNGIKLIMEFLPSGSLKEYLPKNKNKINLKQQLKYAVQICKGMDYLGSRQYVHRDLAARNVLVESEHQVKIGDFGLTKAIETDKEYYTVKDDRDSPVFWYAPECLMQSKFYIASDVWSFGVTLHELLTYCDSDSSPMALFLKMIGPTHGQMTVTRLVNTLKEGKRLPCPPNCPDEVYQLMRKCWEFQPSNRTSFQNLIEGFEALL

Turning to `N#CCC1(n2cc(C(N)=O)c(Nc3ccc(F)cc3)n2)CCN(CC2CC2)CC1` [Example 24-2, 1-[4-(cyanomethyl)-1-(cyclopropylmethyl)piperidin-4-yl]-3-[(4-fluorophenyl)amino]-1H-pyrazole-4-carboxamide], the concentration for half-maximal inhibition (IC50) (in general, the concentration that inhibits the measured activity by half) against JAK2 amounted to 917 nM; on JAK1, 41 nM.
In the same order, the values of `N#CCC1(n2cc(C(N)=O)c(Nc3ccccc3)n2)CCN(C(=O)C2CCCCC2)CC1` [Example 34-13, 1-[4-(cyanomethyl)-1-(cyclohexylcarbonyl)piperidin-4-yl]-3-(phenylamino)-1H-pyrazole-4-carboxamide] are 44 nM and 2 nM.
In the same order, the values of `N#CCC1(n2cc(C(N)=O)c(Nc3ccc(C(O)C(F)(F)F)nc3)n2)CCN(C(=O)OCC(F)(F)F)CC1` (stereo not drawn) [Example 10-3, 2,2,2-trifluoroethyl 4-(4-carbamoyl-3-(6-(2,2,2-trifluoro-1-hydroxyethyl)pyridin-3-ylamino)-1H-pyrazol-1-yl)-4-(cyanomethyl)piperidine-1-carboxylate] are 0.6 nM and 0.06 nM.
On to `N#CCC1(n2cc(C(N)=O)c(Nc3ccccc3)n2)CCN(C(=O)C2CC2)CC1` [Example 34-1, 1-[4-(Cyanomethyl)-1-(cyclopropylcarbonyl)piperidin-4-yl]-3-(phenylamino)-1H-pyrazole-4-carboxamide], for which the results for the 50% inhibitory concentration (IC50) on JAK2 and on JAK1 were 16 nM and 1 nM, respectively.
`N#CCC1(n2cc(C(N)=O)c(Nc3ccnc(F)c3)n2)CCC(NCc2ccccc2O)CC1` (stereo not drawn) [Example 41-7, Cis or trans 1-{1-(cyanomethyl)-4-[(2-hydroxybenzyl)amino]cyclohexyl}-3-[(2-fluoropyridin-4-yl)amino]-1H-pyrazole-4-carboxamide]: the IC50 was determined as 468 nM against JAK2 and 12 nM at JAK1.
In the same order, the values of `N#CCC1(n2cc(C(N)=O)c(Nc3ccnc(F)c3)n2)CCC(NCc2cccc(Cl)c2)CC1` (stereo not drawn) [Example 41-23, Cis or trans 1-{4-[(3-chlorobenzyl)amino]-1-(cyanomethyl)cyclohexyl}-3-[(2-fluoropyridin-4-yl)amino]-1H-pyrazole-4-carboxamide] are 1430 nM and 46 nM.
Regarding `CCCCNC(=O)N1CC(CC#N)(n2cc(C(N)=O)c(Nc3ccccc3)n2)C1` [Example 38-5, 1-[1-(butylcarbamoyl)-3-(cyanomethyl)azetidin-3-yl]-3-(phenylamino)-1H-pyrazole-4-carboxamide], the half-inhibitory concentration (IC50) at JAK2 was 214 nM; at JAK1, 4 nM.
As for `N#CCC1(n2cc(C(N)=O)c(Nc3ccnc(F)c3)n2)CCN(CC2CCCCC2)CC1` [Example 22-3, 1-[4-(cyanomethyl)-1-(cyclohexylmethyl)piperidin-4-yl]-3-[(2-fluoropyridin-4-yl)amino]-1H-pyrazole-4-carboxamide], the IC50 worked out at 57 nM against JAK2 and 1 nM at JAK1.
Consider `Cc1nc(-c2ccc(Nc3nn(C4(CC#N)CCN(C(=O)OC(C)(C)C)CC4)cc3C(N)=O)cc2)no1` [Example 9-32, tert-butyl 4-(4-carbamoyl-3-{[4-(5-methyl-1,2,4-oxadiazol-3-yl)phenyl]amino}-1H-pyrazol-1-yl)-4-(cyanomethyl)piperidine-1-carboxylate], for which the half-maximal inhibitory concentration (IC50) on JAK2 is 8 nM; at JAK1, 0.3 nM.
In the same order, the values of `CC(C)(C)OC(=O)N1CCC(CC#N)(n2cc(C(N)=O)c(Nc3cnc(C#N)nc3)n2)CC1` [Example 4-6, tert-butyl 4-{4-carbamoyl-3-[(2-cyanopyrimidin-5-yl)amino]-1H-pyrazol-1-yl}-4-(cyanomethyl)piperidine-1-carboxylate] are 38 nM and 3 nM.
In the same order, the values of `N#CCC1(n2cc(C(N)=O)c(Nc3ccccc3)n2)CCN(Cc2cccc(F)c2)CC1` [Example 21-18, 1-[4-(cyanomethyl)-1-(3-fluorobenzyl)piperidin-4-yl]-3-(phenylamino)-1H-pyrazole-4-carboxamide] are 73 nM and 2 nM.
In the same order, the values of `N#CCC1(n2cc(C(N)=O)c(Nc3ccnc(F)c3)n2)CCC(NCC(F)F)CC1` (stereo not drawn) [Example 40-87, Cis or trans 1-{1-(cyanomethyl)-4-[(2,2-difluoroethyl)amino]cyclohexyl}-3-[(2-fluoropyridin-4-yl)amino]-1H-pyrazole-4-carboxamide] are 524 nM and 13 nM.
With `CC(C)(C)OC(=O)N1CCC(CC#N)(n2cc(C(N)=O)c(Nc3ccc4c(c3)CNC4=O)n2)CC1` [Example 12-7, tert-butyl 4-{4-carbamoyl-3-[(1-oxo-2,3-dihydro-1H-isoindol-5-yl)amino]-1H-pyrazol-1-yl}-4-(cyanomethyl)piperidine-1-carboxylate], the figures for the IC50 against JAK2 and on JAK1 were 2 nM and 0.1 nM, respectively.
In the same order, the values of `N#CCC1(n2cc(C(N)=O)c(Nc3ccccc3)n2)CCN(Cc2cccnc2)CC1` [Example 21-2, 1-[4-(cyanomethyl)-1-(pyridin-3-ylmethyl)piperidin-4-yl]-3-(phenylamino)-1H-pyrazole-4-carboxamide] are 11 nM and 3 nM.
In the same order, the values of `N#CCC1(n2cc(C(N)=O)c(Nc3ccccc3)n2)CCN(C(=O)c2cccc(Cl)c2)CC1` [Example 34-21, l-{l-[(3-chlorophenyl)carbonyl]-4-(cyanomethyl)piperidin-4-yl}-3-(phenylamino)-lH-pyrazole-4-carboxamide] are 63 nM and 4 nM.
In the same order, the values of `N#CCC1(n2cc(C(N)=O)c(Nc3ccccc3)n2)CCN(S(=O)(=O)Cc2ccccc2)CC1` [Example 37-8, 1-[1-(benzylsulfonyl)-4-(cyanomethyl)piperidin-4-yl]-3-(phenylamino)-1H-pyrazole-4-carboxamide] are 35 nM and 15 nM.
As for `N#CCC1(n2cc(C(N)=O)c(Nc3ccc(F)cc3)n2)CCC(Nc2ccccn2)CC1` (stereo not drawn) [Example 40-12, Cis or trans 1-[1-(cyanomethyl)-4-(pyridin-2-ylamino)cyclohexyl]-3-[(4-fluorophenyl)amino]-1H-pyrazole-4-carboxamide], the IC50 against JAK2 was found to be 73 nM; at JAK1 it was 2 nM.
Consider `N#CC[C@]1(n2cc(C(N)=O)c(Nc3ccnc(F)c3)n2)CC[C@H](NCc2ccc(F)cc2F)CC1` [Example 41-1, Trans 1-(1-(cyanomethyl)-4-((2,4-difluorobenzyl)amino)cyclohexyl)-3-((2-fluoropyridin-4-yl)amino)-1H-pyrazole-4-carboxamide], for which the IC50 on JAK2 came out at 218 nM; on JAK1 it was 8 nM.
In the same order, the values of `CC(C)(C)OC(=O)N1CCC(CC#N)(n2cc(C(N)=O)c(Nc3ccncc3)n2)CC1` [Example 2-7, tert-butyl 4-[4-carbamoyl-3-(pyridin-4-ylamino)-1H-pyrazol-1-yl]-4-(cyanomethyl)piperidine-1-carboxylate] are 10 nM and 0.3 nM.
In the same order, the values of `N#CCC1(n2cc(C(N)=O)c(Nc3ccccc3)n2)CCN(S(=O)(=O)c2ccc(-c3ccccc3)cc2)CC1` [Example 37-14, 1-[1-(biphenyl-4-ylsulfonyl)-4-(cyanomethyl)piperidin-4-yl]-3-(phenylamino)-1H-pyrazole-4-carboxamide] are 24 nM and 5 nM.
In the same order, the values of `N#CCC1(n2cc(C(N)=O)c(Nc3ccccc3)n2)CCN(C(=O)C2CCCO2)CC1` (stereo not drawn) [Example 34-6, 1-[4-(cyanomethyl)-1-(tetrahydrofuran-2-ylcarbonyl)piperidin-4-yl]-3-(phenylamino)-1H-pyrazole-4-carboxamide] are 107 nM and 5 nM.
In the case of `Cc1cncc(Nc2nn(C3(CC#N)CCN(C(=O)OC(C)(C)C)CC3)cc2C(N)=O)n1` [Example 13-8, tert-butyl 4-(4-carbamoyl-3-(6-methylpyrazine-2-ylamino)-1H-pyrazol-1-yl)-4-(cyanomethyl)piperidine-1-carboxylate], the IC50 on JAK2 was determined as 176 nM; on JAK1 it was 9 nM.
In the same order, the values of `COc1ccc(S(=O)(=O)N2CCC(CC#N)(n3cc(C(N)=O)c(Nc4ccccc4)n3)CC2)cc1` [Example 37-9, 1-{4-(cyanomethyl)-1-[(4-methoxyphenyl)sulfonyl]piperidin-4-yl}-3-(phenylamino)-1H-pyrazole-4-carboxamide] are 3 nM and 0.8 nM.
In the same order, the values of `CC(C)(C)OC(=O)N1CCC(CC#N)(n2cc(C(N)=O)c(Nc3ccc(Br)cc3)n2)CC1` [Example 2-2, tert-butyl 4-{3-[(4-bromophenyl)amino]-4-carbamoyl-1H-pyrazol-1-yl}-4-(cyanomethyl)piperidine-1-carboxylate] are 23 nM and 0.5 nM.
In the same order, the values of `CC(C)(C)OC(=O)N1CC[C@](CC#N)(n2cc(C(N)=O)c(Nc3ccc(F)cc3)n2)[C@H](F)C1` (racemic) [Example 6-4, tert-butyl (3S,4S and 3R,4R)-4-{4-carbamoyl-3-[(4-fluorophenyl)amino]-1H-pyrazol-1-yl}-4-(cyanomethyl)-3-fluoropiperidine-1-carboxylate] are 0.2 nM and 0.05 nM.
Take `C[C@@H](NC(=O)N1CC(CC#N)(n2cc(C(N)=O)c(Nc3ccccc3)n2)C1)c1ccccc1` [Example 38-33, 1-[3-(cyanomethyl)-1-{[(1R)-1-phenylethyl]carbamoyl}azetidin-3-yl]-3-(phenylamino)-1H-pyrazole-4-carboxamide]: the half-inhibitory concentration (IC50) stood at 265 nM at JAK2 and 26 nM on JAK1.
In the same order, the values of `N#CCC1(n2cc(C(N)=O)c(Nc3ccnc(F)c3)n2)CCN(Cc2cocn2)CC1` [Example 22-26, 1-[4-(cyanomethyl)-1-(1,3-oxazol-4-ylmethyl)piperidin-4-yl]-3-[(2-fluoropyridin-4-yl)amino]-1H-pyrazole-4-carboxamide] are 117 nM and 6 nM.
